pEC50: −log10 of the molar value. *1 amine or outer side, *2 acyl side, *3 side chain or, on linkers, in order; H or OH if unused. Where a SMILES comes first, the peptide text is derived from it. Side-chain parts run from the residue outwards. [ ]: non-standard residue; d: D form. The star is where a group is joined. γGlu = O=C(O)[C@H](CCC(=O)[*:2])N[*:1]; Palmitoyl = CCCCCCCCCCCCCCCC(=O)*; Aib = CC(C)(N)C(=O)O
Tests used:
[1] = target: T1, endogenous glucagon receptor (Rattus norvegicus, UniProt P30082); experiment: Agonistic activity on endogenous glucagon receptor (glycogen synthesis rate in primary rat hepatocytes); type: cell-based; conditions: inhibition of glycogen synthesis rate, 3 hours, read-out: EC50 GLP-1R Rat hepat.
T1 construct: Agonistic activity of the test compounds on endogenous glucagon receptor; endogenous in cells; host or cells: primary rat hepatocytes
Procedure, shortened: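 Primary rat hepatocytes (40,000 cells/well, cultured 24 h) incubated 3 h with compound in KRBH buffer with 0.1% BSA, 22.5 mM glucose and D-[U14C]glucose. 14C incorporated into precipitated glycogen counted, background-subtracted and expressed as % of 0.1% DMSO vehicle (100% CTL). pEC50 from cpm versus log concentration; agonism lowers glycogen synthesis.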

[2] = target: T2, endogenous GLP-1 receptors (Mus musculus, UniProt O35659); experiment: Agonistic activity on endogenous GLP-1 receptor (cAMP, murine insulinoma cell line); type: cell-based; conditions: intracellular cAMP, 15 minutes at 26° C.; read-out: EC50 GLP-1R (murine insulinoma cells)
T2 construct: Agonistic activity of the test compounds on endogenous GLP-1 receptors; endogenous in cells
T2 sequence (O35659 22-463): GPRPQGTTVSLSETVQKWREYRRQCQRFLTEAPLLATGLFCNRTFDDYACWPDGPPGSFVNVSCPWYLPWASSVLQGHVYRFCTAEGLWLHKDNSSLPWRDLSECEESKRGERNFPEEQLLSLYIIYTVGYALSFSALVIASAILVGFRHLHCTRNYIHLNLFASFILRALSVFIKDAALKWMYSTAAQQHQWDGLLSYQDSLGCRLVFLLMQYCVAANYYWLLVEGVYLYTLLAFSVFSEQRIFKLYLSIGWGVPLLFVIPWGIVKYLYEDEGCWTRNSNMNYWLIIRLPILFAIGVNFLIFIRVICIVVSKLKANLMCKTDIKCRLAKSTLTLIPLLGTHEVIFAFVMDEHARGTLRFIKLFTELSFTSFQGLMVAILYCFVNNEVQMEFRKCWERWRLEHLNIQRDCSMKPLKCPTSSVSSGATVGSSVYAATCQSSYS
Procedure, shortened: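 Murine insulinoma cells were exposed 15 min at 26° C in KRBH with 0.1% DMSO to compound or GLP-1 ([…]), then cAMP was measured by AlphaScreen against a standard curve, in quadruplicate. pEC50 came from curve fits; % CTL was normalised to the maximal GLP-1 cAMP response.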

T1 sequence (P30082 27-485): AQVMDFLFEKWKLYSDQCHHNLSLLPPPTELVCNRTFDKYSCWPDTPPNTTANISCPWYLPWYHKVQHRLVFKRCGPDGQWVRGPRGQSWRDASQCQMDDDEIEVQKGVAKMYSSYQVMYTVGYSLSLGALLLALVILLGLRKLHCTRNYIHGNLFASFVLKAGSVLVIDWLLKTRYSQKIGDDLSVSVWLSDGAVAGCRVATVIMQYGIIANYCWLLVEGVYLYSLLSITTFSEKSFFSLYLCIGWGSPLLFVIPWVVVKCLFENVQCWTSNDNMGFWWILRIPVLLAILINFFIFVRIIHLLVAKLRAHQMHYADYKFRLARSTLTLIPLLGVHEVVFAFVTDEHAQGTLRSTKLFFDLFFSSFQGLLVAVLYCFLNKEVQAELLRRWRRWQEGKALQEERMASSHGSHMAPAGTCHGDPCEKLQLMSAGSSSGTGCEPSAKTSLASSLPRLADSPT

## CCCCCCCCCCCCCCCC(=O)N[C@@H](CCC(=O)NCCCC[C@H](NC(=O)[C@H](CCC(=O)O)NC(=O)[C@H](CC(=O)O)NC(=O)[C@H](CC(C)C)NC(=O)[C@H](Cc1ccc(O)cc1)NC(=O)[C@H](CCCCN)NC(=O)[C@H](CO)NC(=O)[C@H](Cc1ccc(O)cc1)NC(=O)[C@H](CC(=O)O)NC(=O)[C@H](CO)NC(=O)[C@@H](NC(=O)[C@H](Cc1ccccc1)NC(=O)[C@@H](NC(=O)CNC(=O)[C@H](CCC(N)=O)NC(=O)C(C)(C)NC(=O)[C@@H](N)Cc1c[nH]cn1)[C@@H](C)O)[C@@H](C)O)C(=O)N[C@@H](CCCNC(=N)N)C(=O)N[C@@H](C)C(=O)N[C@@H](CCCCN)C(=O)N[C@@H](CC(=O)O)C(=O)N[C@@H](Cc1ccccc1)C(=O)N[C@H](C(=O)N[C@@H](CCC(=O)O)C(=O)N[C@@H](Cc1c[nH]c2ccccc12)C(=O)N[C@@H](CC(C)C)C(=O)N[C@@H](CC(C)C)C(=O)N[C@@H](CO)C(=O)N[C@@H](C)C(=O)O)[C@@H](C)CC)C(=O)O [Compound 14, H-H-Aib-QGTFTSDYSKYLDE-K(Hexadecanoyl-isoGlu)-RAKDFIEWLLSA-OH] (H-H[Aib]QGTFTSDYSKYLDEK([γGlu-Palmitoyl])RAKDFIEWLLSA-OH)
[1]
  pEC50: 10.00
[2]
  pEC50: 9.14

— US10253081B2, “Glucagon analogues” (Zealand Pharma A/S, priority 2012, dated 2019)
